Measured values: patent US10202391B2, “Chemical compounds” (AstraZeneca AB, priority 2015, dated 2019)
pIC50: −log10 of the molar value.

System: phospho-p90RSK in A375 cell line
Test: A375 Phospho-p90RSK Cellular Assay
Assay type: cell-based, human
Details: Homo sapiens, A-375, 2 h, A375 cells, 2 hours incubation
How it was run: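 A375 cells (2400/well, DMEM/10% FCS) seeded overnight, then dosed over a 12-point range from 30 μM down to 0.00003 μM (0.3% DMSO) for 2 h at 37 °C. Fixed cells were immunostained for phospho-p90RSK Thr359 with Hoechst nuclear counterstain and read by high-content imaging; IC50s fitted from dose-response.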

pIC50: 8.24
SMILES: COC[C@H]1Cn2cc(-c3nc(Nc4ccnn4C)ncc3C)nc2C(=O)N1Cc1ccc(F)c(F)c1 [Example 18, (R)-7-(3,4-Difluorobenzyl)-6-(methoxymethyl)-2-(5-methyl-2-((1-methyl-1H-pyrazol-5-yl)amino)pyrimidin-4-yl)-6,7-dihydroimidazo[1,2-a]pyrazin-8(5H)-one]
